The values below come from US12064426B2, “Selective inhibitors of ROCK1 and ROCK2 protein kinases and uses thereof” (GENOSCO Inc., priority 2021, dated 2024).

Some results are limits rather than exact numbers.

The target of assay [1] is T1, Recombinant ROCK2 (amino acids 5-554) (Homo sapiens, UniProt O75116).
T1 construct: ROCK2 (amino acids 5-554); by word order, ROCK2 from SignalChem
Kind of assay: ROCK inhibition assay, LANCE Ultra TR-FRET kinase assay (ROCK2). It is filed as biochemical. As to conditions: 4 μM ATP, 50 nM ULight-CREBtide substrate. Put shortly:
(§1)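 Reaction buffer 50 mM HEPES pH 7.5, 10 mM MgCl2, 1 mM EGTA, 2 mM DTT; kinase, ULight-CREBtide (50 nM) and ATP (ROCK1 1 μM, ROCK2 4 μM) react 1 h at room temperature. Phospho-Ser133 detected by europium antibody after 10 mM EDTA stop, TR-FRET ex 320 nm; IC50 calculated.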

Assay [2] concerns the target T2, Recombinant ROCK1 (amino acids 1-477) (Homo sapiens, UniProt Q13464).
T2 construct: Recombinant ROCK1 (amino acids 1-477); by word order, ROCK1 from Carna Biosciences
Kind of assay: ROCK inhibition assay, LANCE Ultra TR-FRET kinase assay (ROCK1). It is filed as biochemical. As to conditions: 1 μM ATP, 50 nM ULight-CREBtide substrate. Put shortly:
as §1
(In TR-FRET formats the signal depends on donor and acceptor labels being close together.)

T1 sequence (O75116 5-554): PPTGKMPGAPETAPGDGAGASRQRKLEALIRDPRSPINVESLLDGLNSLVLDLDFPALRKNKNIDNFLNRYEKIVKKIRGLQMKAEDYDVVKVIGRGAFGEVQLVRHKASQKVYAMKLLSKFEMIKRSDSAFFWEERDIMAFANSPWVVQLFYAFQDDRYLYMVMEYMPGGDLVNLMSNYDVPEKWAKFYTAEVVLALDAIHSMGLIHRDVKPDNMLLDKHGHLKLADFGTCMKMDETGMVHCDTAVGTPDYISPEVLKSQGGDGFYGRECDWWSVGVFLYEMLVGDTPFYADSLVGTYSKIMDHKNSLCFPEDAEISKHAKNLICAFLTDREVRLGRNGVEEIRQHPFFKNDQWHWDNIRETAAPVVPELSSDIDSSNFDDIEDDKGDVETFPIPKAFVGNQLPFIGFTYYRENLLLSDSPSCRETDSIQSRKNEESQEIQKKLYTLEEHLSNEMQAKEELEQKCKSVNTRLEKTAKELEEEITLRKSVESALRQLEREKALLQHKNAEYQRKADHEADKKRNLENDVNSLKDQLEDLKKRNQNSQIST
T2 sequence (Q13464 1-477): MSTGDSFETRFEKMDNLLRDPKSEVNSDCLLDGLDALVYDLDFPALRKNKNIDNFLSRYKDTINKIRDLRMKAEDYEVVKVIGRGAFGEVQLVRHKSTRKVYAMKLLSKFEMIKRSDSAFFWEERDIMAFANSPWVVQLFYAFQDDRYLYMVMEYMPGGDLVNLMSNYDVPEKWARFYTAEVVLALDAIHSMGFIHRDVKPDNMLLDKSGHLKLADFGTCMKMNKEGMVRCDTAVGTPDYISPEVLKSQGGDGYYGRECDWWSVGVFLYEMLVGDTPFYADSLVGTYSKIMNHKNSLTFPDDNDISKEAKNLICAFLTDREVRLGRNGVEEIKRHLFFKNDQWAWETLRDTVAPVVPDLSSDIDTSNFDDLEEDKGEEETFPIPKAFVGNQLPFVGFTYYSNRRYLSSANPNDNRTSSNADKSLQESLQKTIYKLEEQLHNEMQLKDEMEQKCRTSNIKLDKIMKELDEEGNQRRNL

A word on the IC50: it is the concentration that gives 50% inhibition. On to `COc1cccc([C@@H](CO)N2CNc3cc(-c4ccncc4)ccc3C2=O)c1` [Compound 527], for which the concentration for half-maximal inhibition (IC50) in assay [1] was 100 to 500 nM; in assay [2], greater than 501 nM.
The matching figures for `COc1cccc([C@@H](CO)N2CNc3cc(-c4cn[nH]c4C(F)(F)F)ccc3C2=O)c1` [Compound 528]: 100 to 500 nM and greater than 501 nM.
For `COc1cccc([C@@H](CO)N2CNc3cc(-c4cnoc4C)ccc3C2=O)c1` [Compound 529], the half-maximal inhibitory concentration (IC50) in assay [1] is greater than 500 nM; in assay [2], greater than 501 nM.
Consider `COc1cccc([C@@H](CO)N2CNc3cc(-c4cn[nH]c4Cl)ccc3C2=O)c1` [Compound 530], for which the half-maximal inhibitory concentration (IC50) was 10 to 100 nM in assay [1] and greater than 501 nM in assay [2].
For `COc1cccc([C@@H](CO)N2CNc3cc(-c4ccnn4C)ccc3C2=O)c1` [Compound 531], in that order: 100 to 500 nM and greater than 501 nM.
On to `CNC(=O)c1cccc(Cn2cc(C(C)O)c3cc(-c4c[nH]nc4C(F)(F)F)ccc3c2=O)c1` (stereo not shown) [Compound 532, 3-((4-(1-hydroxyethyl)-1-oxo-6-(3-(trifluoromethyl)-1H-pyrazol-4-yl)isoquinolin-2(1H)-yl)methyl)-N-methylbenzamide], for which the half-inhibitory concentration (IC50) in assay [1] and in assay [2] was less than 10 nM in each case.
Regarding `CC(O)c1cn(Cc2cccc(C(=O)NC3CC3)c2)c(=O)c2ccc(-c3c[nH]nc3C(F)(F)F)cc12` (stereo not shown) [Compound 533], the IC50 was 10 to 100 nM in assay [1] and 101 to 500 nM in assay [2].
The matching figures for `CC(O)c1cn(Cc2cccc(C(=O)NC3COC3)c2)c(=O)c2ccc(-c3c[nH]nc3C(F)(F)F)cc12` (stereo not shown) [Compound 534]: less than 10 nM and 11 to 100 nM.
For `CNC(=O)c1cccc(Cn2cc(C(C)O)c3cc(-c4c[nH]nc4C(F)F)ccc3c2=O)c1` (stereo not shown) [Compound 535], the IC50 in assay [1] and in assay [2] was less than 10 nM throughout.
As to `CC(O)c1cn(Cc2cccc(C(=O)NC3CCOCC3)c2)c(=O)c2ccc(-c3c[nH]nc3C(F)F)cc12` (stereo not shown) [Compound 536], the IC50 in assay [1] and in assay [2] was less than 10 nM throughout.
In the case of `CNC(=O)c1cccc(Cn2cc(C(C)O)c3cc(-c4conc4C)ccc3c2=O)c1` (stereo not shown) [Compound 537], the IC50 is less than 10 nM in assay [1] and 11 to 100 nM in assay [2].
`Cc1nocc1-c1ccc2c(=O)n(Cc3cccc(C(=O)NCc4ccc(F)nc4)c3)cc(C(C)O)c2c1` (stereo not shown) [Compound 538]: the 50% inhibitory concentration (IC50) in assay [1] and in assay [2] was less than 10 nM each time.
In the case of `Cc1nocc1-c1ccc2c(=O)n(Cc3cccc(C(=O)NCc4ccccc4)c3)cc(C(C)O)c2c1` (stereo not shown) [Compound 539], the IC50 in assay [1] was less than 10 nM; in assay [2], 11 to 100 nM.
With `CNC(=O)c1cccc(Cn2cc(C(C)O)c3cc(-c4ccnn4C)ccc3c2=O)c1` (stereo not shown) [Compound 540], the IC50 in assay [1] was less than 10 nM; in assay [2], 11 to 100 nM.
For `CNC(=O)c1cccc(Cn2cc(C(C)O)c3cc(-c4c[nH]nc4Cl)ccc3c2=O)c1` (stereo not shown) [Compound 541], the concentration for half-maximal inhibition (IC50) was less than 10 nM in assay [1] and 11 to 100 nM in assay [2].
In the case of `CC(O)c1cn(Cc2cccc(C(=O)NCCN(C)C)c2)c(=O)c2ccc(-c3c[nH]nc3Cl)cc12` (stereo not shown) [Compound 542], the IC50 in assay [1] and in assay [2] was less than 10 nM throughout.
As for `CC(O)c1cn(Cc2cccc(C(=O)NCCc3ccccn3)c2)c(=O)c2ccc(-c3c[nH]nc3Cl)cc12` (stereo not shown) [Compound 543], the IC50 in assay [1] and in assay [2] was less than 10 nM in each case.
On to `CNC(=O)c1cccc(Cn2cc(C(C)O)c3cc(-c4c[nH]nc4N)ccc3c2=O)c1` (stereo not shown) [Compound 544], for which the half-maximal inhibitory concentration (IC50) in assay [1] is less than 10 nM; in assay [2] it was 11 to 100 nM.
`CNC(=O)c1cccc(Cn2cc(C(C)O)c3cc(-c4ccnc(N)c4)ccc3c2=O)c1` (stereo not shown) [Compound 545]: the results for the half-inhibitory concentration (IC50) in assay [1] and in assay [2] were less than 10 nM and 11 to 100 nM, respectively.
For `CNC(=O)c1cccc(Cn2cc(CCO)c3cc(-c4cn[nH]c4C(F)(F)F)ccc3c2=O)c1` [Compound 546, 3-((4-(2-hydroxyethyl)-1-oxo-6-(5-(trifluoromethyl)-1H-pyrazol-4-yl)isoquinolin-2(1H)-yl)methyl)-N-methylbenzamide], the IC50 in assay [1] was less than 10 nM; in assay [2], 11 to 100 nM.
For `CNC(=O)c1cccc(Cn2cc(CC(C)O)c3cc(-c4cn[nH]c4C(F)(F)F)ccc3c2=O)c1` (stereo not shown) [Compound 547], in that order: less than 10 nM and 11 to 100 nM.
As to `CNC(=O)c1cccc(Cn2cc(CCN(C)C)c3cc(-c4cn[nH]c4C(F)(F)F)ccc3c2=O)c1` [Compound 548], the IC50 in assay [1] and in assay [2] was less than 10 nM throughout.
As for `CNC(=O)c1cccc(C(C)n2cc(CCO)c3cc(-c4cn[nH]c4C(F)(F)F)ccc3c2=O)c1` (stereo not shown) [Compound 549], the figures for the IC50 in assay [1] and in assay [2] were less than 10 nM and 11 to 100 nM, respectively.
The matching figures for `CNC(=O)c1cccc(Cn2cc(CCO)c3cc(-c4cn[nH]c4Cl)ccc3c2=O)c1` [Compound 550]: less than 10 nM and 11 to 100 nM.
On to `CNC(=O)c1cccc(C(C)n2cc(CCO)c3cc(-c4cn[nH]c4Cl)ccc3c2=O)c1` (stereo not shown) [Compound 551], for which the IC50 in assay [1] was less than 10 nM; in assay [2] it was 11 to 100 nM.
Regarding `CNC(=O)c1cccc(Cn2cc(CCO)c3cc(-c4conc4C)ccc3c2=O)c1` [Compound 552], the values for the concentration for half-maximal inhibition (IC50) in assay [1] and in assay [2] were 10 to 100 nM and 101 to 500 nM, respectively.
The matching figures for `CNC(=O)c1cccc(C(C)n2cc(CCO)c3cc(-c4conc4C)ccc3c2=O)c1` (stereo not shown) [Compound 553]: 10 to 100 nM and 101 to 500 nM.
With `CNC(=O)c1cccc(C(C)n2cc(CCO)c3cc(-c4cn[nH]c4F)ccc3c2=O)c1` (stereo not shown) [Compound 554], the IC50 is less than 10 nM in assay [1] and 11 to 100 nM in assay [2].
The matching figures for `CNC(=O)c1cccc(Cn2cc(CCO)c3cc(-c4cn[nH]c4F)ccc3c2=O)c1` [Compound 555]: less than 10 nM and 11 to 100 nM.
The matching figures for `CNC(=O)c1cccc(Cn2cc(CCO)c3cc(-c4ccnc(N)c4)ccc3c2=O)c1` [Compound 558]: 10 to 100 nM and less than 10 nM.
Turning to `CNC(=O)c1cccc(Cn2cc(CC(C)O)c3cc(-c4cn[nH]c4C(F)F)ccc3c2=O)c1` (stereo not shown) [Compound 559], the results for the IC50 in assay [1] and in assay [2] were less than 10 nM and 11 to 100 nM, respectively.
The matching figures for `CNC(=O)c1cccc(Cn2cc(CC(C)O)c3cc(-c4cn[nH]c4Cl)ccc3c2=O)c1` (stereo not shown) [Compound 560]: less than 10 nM and less than 10 nM.
The matching figures for `CNC(=O)c1cccc(Cn2cc(CC(C)O)c3cc(-c4c[nH]nc4N)ccc3c2=O)c1` (stereo not shown) [Compound 562]: less than 10 nM and 11 to 100 nM.
Consider `CNC(=O)c1cccc(C(C)n2cc(CCN(C)C)c3cc(-c4cn[nH]c4C(F)(F)F)ccc3c2=O)c1` (stereo not shown) [Compound 563], for which the IC50 in assay [1] was less than 10 nM; in assay [2], 11 to 100 nM.
As to `CNC(=O)c1cccc(Cn2cc(CCN(C)C)c3cc(-c4cn[nH]c4Cl)ccc3c2=O)c1` [Compound 564], the values for the concentration for half-maximal inhibition (IC50) in assay [1] and in assay [2] were less than 10 nM and 11 to 100 nM, respectively.
The matching figures for `CNC(=O)c1cccc(C(C)n2cc(CCN(C)C)c3cc(-c4cn[nH]c4Cl)ccc3c2=O)c1` (stereo not shown) [Compound 565]: less than 10 nM and 11 to 100 nM.
For `CNC(=O)c1cccc(Cn2cc(CCN(C)C)c3cc(-c4ccnn4C)ccc3c2=O)c1` [Compound 566], the half-inhibitory concentration (IC50) is less than 10 nM in assay [1] and 11 to 100 nM in assay [2].
For `CNC(=O)c1cccc(Cn2cc(CCN(C)C)c3cc(-c4c[nH]nc4N)ccc3c2=O)c1` [Compound 567], in that order: less than 10 nM and 11 to 100 nM.
